Laboratory results taken from patent US20250353820A1, “ANTIVIRAL PYRAZOLOPYRIDINONE COMPOUNDS” (Novartis AG, priority 2019, published 2025).

Target: human HSV DNA polymerase UL30 (Human herpesvirus 1 (strain 17) (HHV-1) (Human herpes simplex virus 1), UniProt P04293)
Assay: biochemical
Settings: 625 pM HSV polymerase, 20 minutes at room temperature; read-out: HSV-polymerase Biochemical IC50

Row | Structure (SMILES) | IC50
1 | Cn1nc(C(=O)NCc2ccc(Cl)cc2)c2c1C(=O)N(CC1(S(=O)(=O)N3CC(O)C3)CC1)CC2 [Example 150, N-(4-Chlorobenzyl)-6-((1-((3-hydroxyazetidin-1-yl)sulfonyl)cyclopropyl)methyl)-1-methyl-7-oxo-4,5,6,7-tetrahydro-1H-pyrazolo[3,4-c]pyridine-3-carboxamide] | 81 nM
2 | COc1ccc(C)nc1NS(=O)(=O)C1(CN2CCc3c(C(=O)NCc4ccc(C#N)cc4)nn(C)c3C2=O)CC1 [Example 160] | 301 nM
3 | CC(C)(O)Cn1nc(C(=O)NCc2ccc(C#N)cc2)c2c1C(=O)N(CC1(S(=O)(=O)C(C)(C)CO)CC1)CC2 [Example 235] | 16 nM
4 | CC(C)(CO)S(=O)(=O)C1(CN2CCc3c(C(=O)NCc4ccc(C#N)cc4)n[nH]c3C2=O)CC1 [Example 49, N-(4-cyanobenzyl)-6-((1-((1-hydroxy-2-methylpropan-2-yl)sulfonyl)cyclopropyl)methyl)-7-oxo-4,5,6,7-tetrahydro-1H-pyrazolo[3,4-c]pyridine-3-carboxamide] | 37 nM
5 | CN(CCO)S(=O)(=O)C1(CN2CCc3c(C(=O)NCc4ccc(Cl)cc4)nn(C)c3C2=O)CC1 [Example 144, N-(4-Chlorobenzyl)-6-((1-(N-(2-hydroxyethyl)-N-methylsulfamoyl)cyclopropyl)methyl)-1-methyl-7-oxo-4,5,6,7-tetrahydro-1H-pyrazolo[3,4-c]pyridine-3-carboxamide] | 67 nM
6 | Cn1nc(C(=O)NCc2ccc(Cl)cc2)c2c1C(=O)N(CC1(S(C)(=O)=O)CC1)CC2 [Example 22, N-(4-Chlorobenzyl)-1-methyl-6-((1-(methylsulfonyl)cyclopropyl)methyl)-7-oxo-4,5,6,7-tetrahydro-1H-pyrazolo[3,4-c]pyridine-3-carboxamide] | 436 nM
7 | Cn1ccc(NS(=O)(=O)C2(CN3CCc4c(C(=O)NCc5ccc(C#N)cc5)nn(C)c4C3=O)CC2)n1 [Example 156] | 62 nM
8 | Cn1nc(C(=O)NCc2ccc(C#N)cc2)c2c1C(=O)N(CC1(S(=O)(=O)N3CCNCC3)CC1)CC2 [Example 133, N-(4-Cyanobenzyl)-1-methyl-7-oxo-6-((1-(piperazin-1-ylsulfonyl)cyclopropyl)methyl)-4,5,6,7-tetrahydro-1H-pyrazolo[3,4-c]pyridine-3-carboxamide] | 258 nM
9 | Cn1nc(C(=O)NCc2ccc(C#N)cc2)c2c1C(=O)N(CC1(S(=O)(=O)N3C[C@H](N)[C@@H](O)C3)CC1)CC2 [Example 140, 6-((1-(((3S,4S)-3-Amino-4-hydroxypyrrolidin-1-yl)sulfonyl)cyclopropyl)methyl)-N-(4-cyanobenzyl)-1-methyl-7-oxo-4,5,6,7-tetrahydro-1H-pyrazolo[3,4-c]pyridine-3-carboxamide] | 147 nM
10 | COC(=O)NCC(C)(C)S(=O)(=O)C1(CN2CCc3c(C(=O)NCc4ccc(C#N)cc4)nn(C)c3C2=O)CC1 [Example 73, Methyl (2-((1-((3-((4-cyanobenzyl)carbamoyl)-1-methyl-7-oxo-1,4,5,7-tetrahydro-6H-pyrazolo[3,4-c]pyridin-6-yl)methyl)cyclopropyl)sulfonyl)-2-methylpropyl)carbamate] | 40 nM
11 | Cn1nc(C(=O)NCc2ccc(C#N)cc2)c2c1C(=O)N(CC1(S(=O)(=O)C3CC3)CC1)CC2 [Example 3, N-(4-cyanobenzyl)-6-((1-(cyclopropylsulfonyl)cyclopropyl)methyl)-1-methyl-7-oxo-4,5,6,7-tetrahydro-1H-pyrazolo[3,4-c]pyridine-3-carboxamide] | 55 nM
12 | Cn1nc(C(=O)COc2ccc(C#N)cc2)c2c1C(=O)N(CC1(S(=O)(=O)C3CC3)CC1)CC2 [Example 25, 4-(2-(6-((1-(cyclopropylsulfonyl)cyclopropyl)methyl)-1-methyl-7-oxo-4,5,6,7-tetrahydro-1H-pyrazolo[3,4-c]pyridin-3-yl)-2-oxoethoxy)benzonitrile] | 53 nM
13 | Cn1nc(C(=O)NCc2ccc(C#N)cc2)c2c1C(=O)N(CC1(S(=O)(=O)C(C)(C)COC(F)(F)CO)CC1)CC2 [Example 84, N-(4-Cyanobenzyl)-6-((1-((1-(1,1-difluoro-2-hydroxyethoxy)-2-methylpropan-2-yl)sulfonyl)cyclopropyl)methyl)-1-methyl-7-oxo-4,5,6,7-tetrahydro-1H-pyrazolo[3,4-c]pyridine-3-carboxamide] | 45 nM
14 | Cn1nc(-c2cc(Cc3ccc(C#N)cc3)on2)c2c1C(=O)N(CC1(S(=O)(=O)C3CC3)CC1)CC2 [Example 34, 4-((3-(6-((1-(Cyclopropylsulfonyl)cyclopropyl)methyl)-1-methyl-7-oxo-4,5,6,7-tetrahydro-1H-pyrazolo[3,4-c]pyridin-3-yl)isoxazol-5-yl)methyl)benzonitrile] | 10 nM
15 | CC(C)(CO)S(=O)(=O)C1(CN2CCc3c(C(=O)NCc4ccc(C#N)cc4)nn(CCO)c3C2=O)CC1 [Example 220] | 23 nM
16 | Cn1nc(C(=O)NCc2ccc(C#N)cc2)c2c1C(=O)N(CC1(S(=O)(=O)C(C)(C)CN3CC4CC3CO4)CC1)CC2 (centres unmarked) [Example 64, 6-((1-((1-(2-Oxa-5-azabicyclo[2.2.1]heptan-5-yl)-2-methylpropan-2-yl)sulfonyl)cyclopropyl)methyl)-N-(4-cyanobenzyl)-1-methyl-7-oxo-4,5,6,7-tetrahydro-1H-pyrazolo[3,4-c]pyridine-3-carboxamide] | 60 nM
17 | Cc1cc(C#N)ccc1CNC(=O)c1nn(C)c2c1CCN(CC1(S(=O)(=O)C3CC3)CC1)C2=O [Example 12, N-(4-Cyano-2-methylbenzyl)-6-((1-(cyclopropylsulfonyl)cyclopropyl)methyl)-1-methyl-7-oxo-4,5,6,7-tetrahydro-1H-pyrazolo[3,4-c]pyridine-3-carboxamide] | 346 nM
18 | Cc1cccc(NS(=O)(=O)C2(CN3CCc4c(C(=O)NCc5ccc(C#N)cc5)nn(C)c4C3=O)CC2)n1 [Example 157] | 46 nM
19 | Cn1nc(-c2nnnn2Cc2ccc(C#N)cc2)c2c1C(=O)N(CC1(S(=O)(=O)C3CC3)CC1)CC2 [Example 30, 4-((5-(6-((1-(cyclopropylsulfonyl)cyclopropyl)methyl)-1-methyl-7-oxo-4,5,6,7-tetrahydro-1H-pyrazolo[3,4-c]pyridin-3-yl)-1H-tetrazol-1-yl)methyl)benzonitrile] | 6240 nM
20 | Cn1nc(C(=O)NCc2ccc(C#N)cc2)c2c1C(=O)N(CC1(S(=O)(=O)NC3CCNCC3)CC1)CC2 [Example 137, N-(4-Cyanobenzyl)-1-methyl-7-oxo-6-((1-(N-(piperidin-4-yl)sulfamoyl)cyclopropyl)methyl)-4,5,6,7-tetrahydro-1H-pyrazolo[3,4-c]pyridine-3-carboxamide] | 691 nM
21 | CN1CCN(S(=O)(=O)C2(CN3CCc4c(C(=O)NCc5ccc(C#N)cc5)nn(C)c4C3=O)CC2)CC1 [Example 136, N-(4-Cyanobenzyl)-1-methyl-6-((1-((4-methylpiperazin-1-yl)sulfonyl)cyclopropyl)methyl)-7-oxo-4,5,6,7-tetrahydro-1H-pyrazolo[3,4-c]pyridine-3-carboxamide] | 243 nM
22 | Cn1nc(C(=O)NCc2ccc(C#N)cc2)c2c1C(=O)N(CC1(S(=O)(=O)C(C)(C)CN3CC(F)C3)CC1)CC2 [Example 60, N-(4-Cyanobenzyl)-6-((1-((1-(3-fluoroazetidin-1-yl)-2-methylpropan-2-yl)sulfonyl)cyclopropyl)methyl)-1-methyl-7-oxo-4,5,6,7-tetrahydro-1H-pyrazolo[3,4-c]pyridine-3-carboxamide] | 45 nM
23 | Cn1nc(C(=O)NCc2ccc(C#N)cc2)c2c1C(=O)N(CC1(S(=O)(=O)N3CC[C@H](O)C3)CC1)CC2 [Example 127, (S)-N-(4-Cyanobenzyl)-6-((1-((3-hydroxypyrrolidin-1-yl)sulfonyl)cyclopropyl)methyl)-1-methyl-7-oxo-4,5,6,7-tetrahydro-1H-pyrazolo[3,4-c]pyridine-3-carboxamide] | 67 nM
24 | Cn1nc(-c2nnc(Cc3ccc(C#N)cc3)o2)c2c1C(=O)N(CC1(S(=O)(=O)C3CC3)CC1)CC2 [Example 26, 4-((5-(6-((1-(Cyclopropylsulfonyl)cyclopropyl)methyl)-1-methyl-7-oxo-4,5,6,7-tetrahydro-1H-pyrazolo[3,4-c]pyridin-3-yl)-1,3,4-oxadiazol-2-yl)methyl)benzonitrile] | 3960 nM
25 | Cn1nc(C(=O)N[C@H](CO)c2ccc(Cl)cc2)c2c1C(=O)N(CC1(S(=O)(=O)C3CC3)CC1)CC2 [Example 19, (S)-N-(1-(4-Chlorophenyl)-2-hydroxyethyl)-6-((1-(cyclopropylsulfonyl)cyclopropyl)methyl)-1-methyl-7-oxo-4,5,6,7-tetrahydro-1H-pyrazolo[3,4-c]pyridine-3-carboxamide] | 8180 nM
26 | Cn1nc(C(=O)NCc2ccc(Cl)cc2)c2c1C(=O)N(CC1(S(=O)(=O)C(C)(CO)CO)CC1)CC2 [Example 175, N-(4-chlorobenzyl)-6-((1-((1,3-dihydroxy-2-methylpropan-2-yl)sulfonyl)cyclopropyl)methyl)-1-methyl-7-oxo-4,5,6,7-tetrahydro-1H-pyrazolo[3,4-c]pyridine-3-carboxamide] | 27 nM
27 | O=C(NCc1ccc(Cl)cc1)c1nn(CCO)c2c1CCN(CC1(S(=O)(=O)C3CC3)CC1)C2=O [Example 218] | 50 nM
28 | N#Cc1ccc(CNC(=O)c2nn(CC3(O)CC3)c3c2CCN(CC2(S(=O)(=O)C4CC4)CC2)C3=O)cc1 [Example 228, N-(4-Cyanobenzyl)-6-((1-(cyclopropylsulfonyl)cyclopropyl)methyl)-1-((1-hydroxycyclopropyl)methyl)-7-oxo-4,5,6,7-tetrahydro-1H-pyrazolo[3,4-c]pyridine-3-carboxamide] | 56 nM
29 | Cn1nc(C2=NOC(c3ccc(C#N)cc3)C2)c2c1C(=O)N(CC1(S(=O)(=O)C3CC3)CC1)CC2 (centres unmarked) [Example 31, 4-(3-(6-((1-(Cyclopropylsulfonyl)cyclopropyl)methyl)-1-methyl-7-oxo-4,5,6,7-tetrahydro-1H-pyrazolo[3,4-c]pyridin-3-yl)-4,5-dihydroisoxazol-5-yl)benzonitrile] | 293 nM
